Data on two molecules can be found in patent US10227349B2, “Pyrazolo[1,5-a]pyrimidine compound” (Eisai R&D Management Co., Ltd., priority 2016, dated 2019).

Experiment [1] concerns the target T1, PAR2 (Homo sapiens, UniProt P55085).
T1 construct: Human embryonic kidney cell line HEK293 cells cultured using DMEM culture medium; endogenous in cells; host or cells: HEK293
T1 sequence (P55085 26-397): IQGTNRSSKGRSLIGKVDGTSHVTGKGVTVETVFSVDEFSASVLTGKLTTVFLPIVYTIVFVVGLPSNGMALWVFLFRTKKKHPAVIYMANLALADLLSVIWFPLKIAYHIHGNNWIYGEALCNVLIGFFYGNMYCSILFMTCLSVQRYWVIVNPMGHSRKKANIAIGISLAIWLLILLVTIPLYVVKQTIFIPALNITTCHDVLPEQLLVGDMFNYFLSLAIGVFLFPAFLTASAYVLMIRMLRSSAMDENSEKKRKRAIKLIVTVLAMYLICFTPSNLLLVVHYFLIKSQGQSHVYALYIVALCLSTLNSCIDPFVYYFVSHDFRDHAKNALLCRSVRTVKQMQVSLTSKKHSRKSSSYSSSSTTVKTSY
Briefly: Intracellular calcium concentration measurement (trypsin-induced calcium elevation, FDSS6000). The experiment is classed as cell-based. As to conditions: HEK293 cells, trypsin 5 U/mL as agonist, test compound added 30 min before measurement; read-out: Inhibitory activity on intracellular calcium elevation (IC50 (nM)). In short, it runs like this:
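HEK293 cells grown overnight in 3% FBS on collagen-coated plates were loaded for 1 h with FLIPR calcium dye in Hanks–20 mM HEPES, pH 7.4. The calcium fluorescence change was recorded on FDSS6000 for 120 s at 37 °C.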
(In general: Calcium assays in cells follow changes in intracellular calcium, usually with a dye or a luminescent sensor.)

Experiment [2] relates to OXA-induced enteritis in BALB/c male mice. Nature of the experiment: Model mouse for enteritis (OXA-induced, bowel length). The class given is in vivo. As to conditions: po, 48 h, 0.1 mg/mL solution 10 mL/kg orally twice (1 hour before and day after OXA induction), length of colon and rectum two days after induction, read-out: Inhibitory activity on bowel shortening (%). As to the method: Generally, the bowel length is known to be shorter during enteritis (Maxwell, J. R. et al. Curr. Protoc. Pharmacol. Chapter 5: Unit 5.58, 2009). The bowel length in an enteritis model was measured to evaluate the effect of the test compound.
The test compound was added to a 0.5% carboxymethyl cellulose solution so as to have a final concentration of 0.1 mg/mL, thereby preparing an administration solution containing the test compound. Hapten used was 4-ethoxymethylene-2-phenyloxazol-5-one (OXA, SIGMA-ALDRICH).
One hundred (100) μL of a solution of OXA diluted to 0.3% with ethanol was applied to the shaved abdominal region of BALB/c male mice (Charles River), 6-10 weeks of age, to create the sensitization. Five days after the sensitization, OXA was intrarectally administered to induce an enteritis reaction. More specifically, a syringe equipped with a sonde for oral administration was inserted into the anus of the mouse anesthetized by the inhalation of isoflurane at a concentration of 4-5% and 50 μL of the OXA solution adjusted to 1% with a solvent of 50% ethanol/50% distilled water was administered into the rectum.
One hour before and on the day following the induction of enteritis, the administration solution containing the test compound (10 mL/kg) was orally administered twice in total to the mice. Two days after the induction of enteritis, the mice were euthanized by cervical dislocation and subsequently the cecum to the anus was collected to measure the combined length of the colon and the rectum using a ruler, thereby evaluating the action of the test compound.
Note that Reference Example 1 in Table 6 is Compound (XIX).

`CO[C@H]1CN(C(=O)c2cc3nc(-c4cc(F)c(Cl)c(F)c4)cc(N(C)c4c(C)cccc4F)n3n2)CC[C@H]1CC(=O)O` [Example 10, 2-((3R,4S)-1-(5-(4-chloro-3,5-difluorophenyl)-7-((2-fluoro-6-methylphenyl)(methyl)amino)pyrazolo[1,5-a]pyrimidine-2-carbonyl)-3-methoxypiperidin-4-yl)acetic acid]: the IC50 in experiment [1] is 3.46 nM. Take `C[C@@H](c1ccccc1)N(C)c1cc(-c2cc(F)c(F)c(F)c2)nc2cc(C(=O)N3CCC(CC(=O)O)CC3)nn12` [Reference Example 1, (S)-2-(1-(7-(methyl(1-phenylethyl)amino)-5-(3,4,5-trifluorophenyl)pyrazolo[1,5-a]pyrimidine-2-carbonyl)piperidin-4-yl)acetic acid, reference compound]: the IC50 in experiment [1] came out at 8.27 nM. The inhibition in vivo at 100 µg/mL, 1 mg/kg in experiment [2] worked out at 37.3%.

For orientation: IC50 means the point on the concentration scale where inhibition reaches its midpoint.
